EC50 and Ki data for one compound are collected here from ChEMBL document CHEMBL4028804, “The Necessary Nitrogen Atom: A Versatile High-Impact Design Element for Multiparameter Optimization” (J Med Chem, 2017).

SMILES strings stand for the structures.

For assay [1], the target named is T1, Mu-type opioid receptor (Homo sapiens, UniProt P35372). Description: Agonist activity at human mu-opioid receptor expressed in HEK293 cells coexpressing delta6-Galphaqi4-myr assessed as induction of intracellular calcium flux after 48 hrs by FLIPR assay. The format is functional, cell-based.
Assay [2] concerns the target T1, Mu-type opioid receptor. Description: Agonist activity at human mu-opioid receptor expressed in HEK293 cell membranes after 1 hr by [35S]-GTPgammaS binding assay. The format is functional.
In assay [3] the target is T1, Mu-type opioid receptor. Description: Displacement of [3H]-DAMGO from human HA-tagged mu-opioid receptor expressed in HEK293 cells after 90 mins by liquid scintillation counting analysis. The class given is cell-based.

T1 sequence (P35372 whole entry): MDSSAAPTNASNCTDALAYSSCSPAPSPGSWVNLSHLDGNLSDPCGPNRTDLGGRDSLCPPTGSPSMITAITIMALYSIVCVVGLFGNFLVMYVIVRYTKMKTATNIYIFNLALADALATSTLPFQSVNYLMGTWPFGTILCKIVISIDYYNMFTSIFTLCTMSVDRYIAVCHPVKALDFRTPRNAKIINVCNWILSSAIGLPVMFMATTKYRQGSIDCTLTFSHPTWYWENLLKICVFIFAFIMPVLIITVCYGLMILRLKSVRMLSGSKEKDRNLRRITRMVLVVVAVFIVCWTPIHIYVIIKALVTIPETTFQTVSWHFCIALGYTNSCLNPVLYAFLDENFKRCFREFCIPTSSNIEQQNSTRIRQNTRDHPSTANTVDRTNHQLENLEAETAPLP

On to `O=C(N[C@@H]1CC[C@@]2(O)[C@H]3Cc4ccc(O)c5c4[C@@]2(CCN3CC2CC2)[C@H]1O5)c1ccc2ccccc2c1`, for which the EC50 was above 1000 nM in assay [1] and 0.3 nM in assay [2]. The compound further gave a Ki in assay [3] of 1.3 pM.
